In test [1] the test system is HCT116 cells [human colorectal cell line]. Put plainly: HCT116 Cell Titer Glo (CTG) Proliferation Assay [Assay 1]. Format: cell-based. The following applies: HCT-116, 72 hours incubation. An excerpt: Cell Titer Glo Proliferation Assay
The adherent tumor cell proliferation assay used to test the compounds of the present invention involves a readout called Cell Titre-Glo developed by Promega (Cunningham, B A “A Growing Issue: Cell Proliferation Assays. Modern kits ease quantification of cell growth” The Scientist 2001, 15(13), 26, and Crouch, S P et al., “The use of ATP bioluminescence as a measure of cell proliferation and cytotoxicity” Journal of Immunological Methods 1993, 160, 8 1-88).
Assay 1: HCT116 Cell Titer Glo (CTG) Proliferation Assay:
(§1) HCT116 cells [human colorectal cell line, expressing […]] were plated at a density of 3000 cells/well in 96 well black-clear bottom tissue culture plates (Costar 3603 black/clear bottom) in 100 μl/well DMEM medium (DMEM/Ham's F12) with 10% Fetal Bovine Serum (FBS) and stable Glutamine incubated at 37° C. Sister wells were plated in separate plate for time zero determination. All plates were incubated overnight at 37° C. Take down time zero plate: 100 μl/well CTG solution (Promega Cell Titer Glo solution) were added to time zero wells in sister plate; the plates were mixed for 2 min on orbital shaker to ensure cell lysis, incubated for 10 minutes, luminescence was read on VICTOR3 (Perkin Elmer). Twenty-four hours after cell seeding, test compounds were diluted in 50 μl medium and were added at a final concentration range from as high 10 μM to as low […] depending on the activities of the tested compounds in serial dilutions at a final DMSO concentration of 0.4%. Cells were incubated for 72 hours at 37° C. after addition of the test compound. Then, using a Promega Cell Titer Glo Luminescent® assay kit, 100 μl microliter lysis buffer containing of the enzyme luciferase and its substrate, luciferin mixture, were added to each well and incubated for 10 min at room temperature in the dark to stabilize luminescence signal. The samples were read on VICTOR3 (Perkin Elmer) using Luminescence protocol. The percentage change in cell growth was calculated by normalizing the measurements to the extinctions of the zero point plate (=0%) and the extinction of the untreated (0 μM) cells (=100%). The IC50 values were determined by means of a 4-parameter fit using the company's own software.
Background: Cellular ATP, detected with luciferase, serves as a proxy for viable cell number.

Test [2] concerns A549 cells [human non small cell lung cancer cell line, expressing mutant K-Ras G12S]. Put plainly: A549 Cell Titer Glo (CTG) Proliferation Assay [Assay 2]. Conditions: 72 hours incubation. Format: cell-based. As to the method:
as §1
Assay 2: A549 Cell Titer Glo (CTG) Proliferation Assay:
A549 cells [human non small cell lung cancer cell line, expressing mutant K-Ras G12S] were seeded at a density of 2000 cells/well in 96 well black-clear bottom tissue culture plates (Costar 3603 black/clear bottom) in 100 μl/well DMEM medium (DMEM/Ham's F12) with 10% Fetal Bovine Serum (FBS) and stable Glutamine incubated at 37° C. Cell Titer Glo proliferation assays for A549 cells were performed with the same protocol as described afore for HCT116 cells.

The test system of test [3] is A375 cells [human melanoma cell line, expressing mutant BRAF V600E]. Put plainly: A375 Crystal Violet (CV) Proliferation Assay [Assay 5]. Format: cell-based. The following applies: A-375, 96 h, crystal violet staining, 4 days incubation. As to the method: Assay 5: A375 Crystal Violet (CV) Proliferation Assay:
Cell proliferation for A375 cells [human melanoma cell line, expressing mutant BRAF V600E] was measured by crystal violet (CV) staining: Cultivated human A375 cells were plated out in a density of 1500 cells/measurement point in 200 μl of growth medium (DMEM/HAMS F12 with 10% FBS and 2 mM Glutamine) in a 96-well multititer plate. After 24 hours, the cells from a plate (zero plate) were stained with crystal violet (see below), while the medium in the other plates was replaced by fresh culture medium (200 μl) to which the test substances had been added in various concentrations (0 μM, and in the range 0.3 nM-30 μM; the final concentration of the solvent dimethyl sulphoxide was 0.5%). The cells were incubated in the presence of the test substances for 4 days. The cell proliferation was determined by staining the cells with crystal violet: the cells were fixed by adding 20 μl/measurement point of an 11% glutaraldehyde solution at room temperature for 15 min. After the fixed cells had been washed three times with water, the plates were dried at room temperature. The cells were stained by adding 100 μl/measurement point of a 0.1% crystal violet solution (pH adjusted to pH 3 by adding acetic acid). After the stained cells had been washed three times with water, the plates were dried at room temperature. The dye was dissolved by adding 100 μl/measurement point of a 10% acetic acid solution, and the extinction was determined by photometry at a wavelength of 595 nm. The percentage change in cell growth was calculated by normalizing the measurements to the extinctions of the zero point plate (=0%) and the extinction of the untreated (0 μM) cells (=100%). The IC50 values were determined by means of a 4-parameter fit using the company's own software.

Another test relates to MEK1/2. Conditions: second-generation MEK1/2 inhibitor, background [17]; cited from earlier work.
The test system of the next test is colon cancer. Conditions: oral treatment, mouse models, background [18]; cited from earlier work.

What is called IC50 is the concentration needed to halve the response being measured.

In the case of `CCS(=O)(=O)Nc1cccc(Oc2cc(F)cc(Nc3ccc(I)cc3F)c2NS(=O)(=O)C2CC2)c1` [Example 1, N-(2-{3-[(ethylsulfonyl)amino]phenoxy}-4-fluoro-6-[(2-fluoro-4-iodophenyl)amino]phenyl)cyclopropanesulfonamide], the IC50 is 26.5 nM in test [1], 18.1 nM in test [2] and 0.351 nM in test [3].

Consider `CCS(=O)(=O)Nc1cccc(Oc2cc(F)cc(Nc3ccc(I)cc3F)c2NS(C)(=O)=O)c1` [Example 2, N-(3-{5-fluoro-3-[(2-fluoro-4-iodophenyl)amino]-2-[(methylsulfonyl)-amino]phenoxy}-phenyl)ethane-sulfonamide], for which the IC50 amounted to 28.3 nM in test [1], 39.4 nM in test [2] and 0.899 nM in test [3].

In the case of `CCS(=O)(=O)Nc1cccc(Oc2cc(F)cc(Nc3ccc(I)cc3F)c2NS(=O)(=O)CC)c1` [Example 3, N-(3-{2-[(ethylsulfonyl)amino]-5-fluoro-3-[(2-fluoro-4-iodophenyl)amino]-phenoxy}phenyl)-ethanesulfonamide], the IC50 in test [1] amounted to 31.7 nM; in test [2] it was 73.6 nM; in test [3], 1.56 nM.

`CCS(=O)(=O)Nc1cccc(Oc2cc(F)cc(Nc3ccc(I)cc3F)c2NS(=O)(=O)C(C)C)c1` [Example 4, N-(2-{3-[(ethylsulfonyl)amino]phenoxy}-4-fluoro-6-[(2-fluoro-4-iodophenyl)amino]-phenyl)propane-2-sulfonamide]: the IC50 in test [1] worked out at 53.7 nM; in test [2] it was 92.5 nM; in test [3] it was 15.6 nM.

For `CCS(=O)(=O)Nc1cccc(Oc2cc(F)cc(Nc3ccc(I)cc3F)c2NS(N)(=O)=O)c1` [Example 6, N-(3-{5-fluoro-3-[(2-fluoro-4-iodophenyl)amino]-2-(sulfamoylamino)phenoxy}phenyl)ethanesulfonamide], the IC50 in test [1] turned out to be 100 nM; in test [2], 68.9 nM; in test [3] it was 2.44 nM.

Turning to `CCS(=O)(=O)Nc1cccc(Oc2cc(F)cc(Nc3ccc(I)cc3F)c2NS(=O)(=O)C2CC2)c1C` [Example 7, N-(2-{3-[(ethylsulfonyl)amino]-2-methylphenoxy}-4-fluoro-6-[(2-fluoro-4-iodophenyl)amino]phenyl)cyclopropanesulfonamide], the IC50 in test [1] was determined as 3 nM; in test [3], 0.171 nM.

For `CCS(=O)(=O)Nc1cccc(Oc2cc(F)cc(Nc3ccc(I)cc3F)c2NS(N)(=O)=O)c1C` [Example 8, N-(3-{5-fluoro-3-[(2-fluoro-4-iodophenyl)amino]-2-(sulfamoylamino)phenoxy}-2-methylphenyl)ethanesulfonamide], the half-maximal inhibitory concentration (IC50) in test [1] is 10 nM; in test [2], 4.78 nM; in test [3], 0.68 nM.

Turning to `C#Cc1ccc(Nc2cc(F)cc(Oc3cccc(NS(=O)(=O)CC)c3)c2NS(=O)(=O)C2CC2)c(F)c1` [Example 9, N-(2-{3-[(ethylsulfonyl)amino]phenoxy}-6-[(4-ethynyl-2-fluorophenyl)amino]-4-fluorophenyl)cyclopropanesulfonamide], the IC50 came out at 59.6 nM in test [1], 137 nM in test [2] and 2.39 nM in test [3].

Turning to `C#Cc1ccc(Nc2cc(F)cc(Oc3cccc(NS(=O)(=O)CC)c3)c2NS(N)(=O)=O)c(F)c1` [Example 10, N-(3-{3-[(4-ethynyl-2-fluorophenyl)amino]-5-fluoro-2-(sulfamoylamino)phenoxy}phenyl)ethanesulfonamide], the 50% inhibitory concentration (IC50) in test [1] amounted to 70 nM; in test [2] it was 86.7 nM; in test [3] it was 7.93 nM.

Regarding `NS(=O)(=O)Nc1cccc(Oc2cc(F)cc(Nc3ccc(I)cc3F)c2NS(=O)(=O)C2CC2)c1` [Example 11, N-{4-fluoro-2-[(2-fluoro-4-iodophenyl)amino]-6-[3-(sulfamoylamino)phenoxy]phenyl}cyclopropanesulfonamide], the 50% inhibitory concentration (IC50) amounted to 7.04 nM in test [1] and 6.65 nM in test [2].

Consider `CC(C)S(=O)(=O)Nc1cccc(Oc2cc(F)cc(Nc3ccc(I)cc3F)c2NS(=O)(=O)C2CC2)c1` [Example 12, N-(4-fluoro-2-[(2-fluoro-4-iodophenyl)amino]-6-{3-[(isopropylsulfonyl)amino]phenoxy}phenyl)cyclopropanesulfonamide], for which the IC50 in test [1] stood at 32 nM; in test [2], 36.1 nM; in test [3], 0.729 nM.

Compound `NS(=O)(=O)Nc1cc(Oc2cc(F)cc(Nc3ccc(I)cc3F)c2NS(=O)(=O)C2CC2)ccc1F` [Example 14, N-{4-fluoro-2-[(2-fluoro-4-iodophenyl)amino]-6-[4-fluoro-3-(sulfamoylamino)phenoxy]phenyl}cyclopropanesulfonamide] displayed an IC50 in test [3] of 18.6 nM.

On to `O=C(NOCC1CC1)c1ccc(F)c(F)c1Nc1ccc(I)cc1Cl` [PD184352], for which, in the test on MEK1/2, the 50% inhibitory concentration (IC50) entry is listed as “low nanomolar range”. Further, the “colon cancer growth in vivo” value with colon cancer was “inhibit colon cancer growth in vivo”.

As to `NC(=O)c1c(Nc2ccc(I)cc2F)cc(F)cc1Oc1cccc(NS(N)(=O)=O)c1` [reference compound], the figures for the half-maximal inhibitory concentration (IC50) in test [1], in test [2] and in test [3] were 208 nM, 319 nM and 4.53 nM, respectively.

The values above are taken from US8962606B2, “Substituted benzosulphonamides” (Bayer Intellectual Property GmbH, priority 2009, dated 2015).
